Source: patent US12109207B2, “Methods of using 4(1H)-quinolone derivatives” (Academia Sinica, priority 2019, dated 2024)

Columns and labels:
CL1-0 and H1975 cells [1] = experiment: Pro-apoptotic protein immunoblotting, cancer cells; format: cell-based, human; conditions: 24 to 72 h
Method: (§1) The cells were harvested and lysed in RIPA buffer (20 mM Tris-HCl, 150 mM NaCl, 1 mM Na2EDTA, 1% sodium deoxycholate, 1% IGEPAL CA-630, 0.1% SDS, pH 7.5) with protease inhibitors (Roche). Protein concentration was measured by the BCA assay. For immunoprecipitation, protein extracts were incubated with mag-beads-AS1712 or mag-beads-control at 4° C. overnight and then washed five times with PBS before immunoblotting. For immunoblotting, equivalent amounts of denatured proteins were separated through SDS-PAGE gels and then transferred to PVDF membranes (Millipore), which were each blocked with 5% nonfat milk in PBS and 0.1% Tween-20 (Sigma Aldrich) for 1 h. Then each membrane was incubated with a primary antibody overnight at 4° C., followed by incubation with a horseradish peroxidase conjugated secondary antibody for 1 h at room temperature. The signal was visualized by enhanced chemiluminescence detection, and images were acquired using a BioSpectrum Imaging System (UVP).

HFB cells = experiment: Pro-apoptotic protein immunoblotting, HFB; format: cell-based, human; conditions: 24 to 72 h, normal HFB cells
Method: as §1

HDQP1/TAX = experiment: Cell cytotoxicity assay, HDQP1/TAX; format: cell-based, human
Method: (§2) Cells were seeded into the wells of 96-well plates (2000 cells/well). After an overnight culture, the cells were treated with different concentrations of a compound for 72 h. The CellTiter 96 AQueous one-solution cell proliferation assay (MTS) reagent was used to determine cytotoxicity. After treatment with a compound, 20 μL of the MTS reagent was added to each well and the plates were incubated at 37° C. for 1-4 h. Next, the absorbance at 490 nm of the culture medium in each well was determined using a VersaMax microplate reader (Molecular Devices).

CL1-0 = experiment: Cell cytotoxicity assay (MTS), CL1-0; format: cell-based; conditions: Homo sapiens, CL1-0, 72 h
Method: as §2

MDA-MB-231 = experiment: Cell cytotoxicity assay (MTS), MDA-MB-231; format: cell-based; conditions: Homo sapiens, MDA-MB-231, 72 h
Method: as §2

SW620 = experiment: Cell cytotoxicity assay (MTS), SW620; format: cell-based; conditions: Homo sapiens, SW-620
Method: as §2

CEM/VBL = experiment: Cell cytotoxicity assay (MTS), CEM/VBL; format: cell-based, human; conditions: CEM/VBL vs CCRF-CEM
Method: as §2

SAS = experiment: Cell cytotoxicity assay (MTS), SAS; format: cell-based; conditions: Homo sapiens
Method: as §2

HCT116 = experiment: Cell cytotoxicity assay (MTS), HCT116; format: cell-based; conditions: Homo sapiens, HCT-116
Method: as §2

tubulin = tubulin (Sus scrofa, UniProt P02554); experiment: Binding affinity assay (surface plasmon resonance); conditions: steady-state model, 25° C.; read-out: dissociation constant (KD) for the tubulin-AS1712 complex
Method: Surface plasmon resonance technology was used to analyze the binding affinity of AS1712 for tubulin. A Series S Sensor Chip SA was conditioned with three consecutive 1-min injections of 1 M NaCl in 50 mM NaOH, and then 50 μg/mL biotin-tubulin (Cytoskeleton) was immobilized onto the sensor chip surface in a Biacore T200 system (GE Healthcare) to attain 3,000 resonance units. One flow cell on the chip was left free to serve as the negative control. Biocytin (Sigma Aldrich) was used to block any remaining unmodified streptavidin sites. Different concentrations of AS1712 in 10 mM HEPES, 150 mM NaCl, 3 mMEDTA, and 0.05% surfactant P20, pH 7.4 were separately injected over the sensor chip surface to measure the association and dissociation of AS1712 and tubulin at 25° C. The value of KD was calculated using the steady-state fitting mode in Biacore T200 Evaluation Software.

[2] = biological target: colchicine site of tubulin (Sus scrofa, UniProt P02554); experiment: Colchicine competition assay; format: binding; conditions: 37° C. for 1 h
Method: Tubulin ([…]) and colchicine ([…]) were incubated with the various concentrations of AS1712, nocodazole, or vincristine in 80 mM PIPES, 2 mM MgCl2, 0.5 mM EGTA, pH 6.9 at 37° C. for 1 h. Fluorescence intensities (excitation and emission wavelengths at 365 and 435 nm, respectively) were recorded using an Infinite M200 plate reader (Tecan). Fluorescence values were normalized to the DMSO control.

82T = experiment: Cell cytotoxicity assay (MTS), 82T; format: cell-based; conditions: Homo sapiens, 72 h
Method: as §2

OECM1 = experiment: Cell cytotoxicity assay (MTS), OECM1; format: cell-based; conditions: Homo sapiens
Method: as §2

CL1-0 and H1975 cells [3] = experiment: Cell cycle analysis (flow cytometry); format: cell-based, human; conditions: 24 h, propidium iodide
Method: After treatment, cells were trypsinized and fixed in ice-cold 70% ethanol overnight. Fixed cells were washed with PBS and stained with 0.5 mL of a propidium iodide (10 μg/mL)/RNase (20 μg/mL) solution for 30 minutes. The cellular DNA content was analyzed with a FACSCanto flow cytometer (Becton Dickinson).

IGR-OV1 = experiment: Cell cytotoxicity assay (MTS), IGR-OV1; format: cell-based; conditions: Homo sapiens, IGROV-1
Method: as §2

Hs578t = experiment: Cell cytotoxicity assay (MTS), Hs578t; format: cell-based; conditions: Homo sapiens, Hs-578T, 72 h
Method: as §2

PC-3 = experiment: Cell cytotoxicity assay (MTS), PC-3; format: cell-based; conditions: Homo sapiens
Method: as §2

[4] = test system: A549, CL1-0, PC9, and H1975; experiment: MTS assay, non-small cell lung cancer cell lines; format: cell-based; conditions: Homo sapiens; A549, CL1-0, PC9, H1975; 72 h MTS; read-out: IC50 values for the affected cell lines
Method: as §2

[5] = Body mass and serum biochemical markers, H1975 xenograft mice; format: in vivo, BALB/c nude mice; conditions: for ALT (IU/L) / AST(IU/L) / BUN / Cre: day 25, mean ± SEM
Method: Using the H1975, MDA-MB-231, and KBtax xenograft models, tumors were established after inoculation into the right flanks of 6-week-old BALB/c nude mice (NARLabs, Taipei, Taiwan). After establishment of the tumors, vehicle and test compounds, which had been dissolved in DMSO, were each injected intraperitoneally into a separate group of animals three times per week. The body mass of each animal and tumor volumes were measured before each drug delivery. Tumor volume was calculated as 0.5W^2L (with W being the width of the smaller diameter and L being the length of the larger diameter). The animal experiment was carried out in accordance with the procedures and guidelines of the Institutional Animal Care and Use Committee, Institute of Biomedical Sciences, Academia Sinica.

Kd (tubulin): 13800 nM
IC50 [4]: 16 to 33 nM
BUN ([5]; 4 mg/kg): 23.2 ± 2.5 mg/dL
Cre ([5]; 4 mg/kg): 0.26 ± 0.05 mg/dL
BUN ([5]; 8 mg/kg): 20.9 ± 1.5 mg/dL
Cre ([5]; 8 mg/kg): 0.17 ± 0.02 mg/dL
Compound: CCOC(=O)c1ccc2[nH]c(-c3ccccc3)cc(=O)c2c1 [AS1712, Ethyl 4-oxo-2-phenyl-1,4-dihydroquinoline-6-carboxylate]
cleavage of poly(ADP-ribose) polymerase (PARP) and caspase-3 (CL1-0 and H1975 cells [1]): induced cleavage
PARP and caspase-3 (HFB cells): not affected
RF, resistance factor (IC50 in resistant cell line/IC50 in parent cell line) (HDQP1/TAX; HDQP1/TAX vs HDQP1): 0.92
IC50 (HDQP1/TAX; Homo sapiens, HDQ-P1, Paclitaxel-resistant subline): 63 ± 16.3 nM
IC50 (CL1-0): 16 ± 2.48 nM
IC50 (MDA-MB-231): 55 ± 6.83 nM
IC50 (SW620): 35 ± 1.18 nM
RF, resistance factor (IC50 in resistant cell line/IC50 in parent cell line) (CEM/VBL): 0.97
IC50 (SAS): 78 ± 10.4 nM
IC50 (HCT116): 50 ± 0.81 nM
colchicine fluorescence [2]: decreased the colchicine fluorescence in a dose-dependent manner
IC50 (82T): 35 ± 0.67 nM
IC50 (OECM1): 52 ± 1.94 nM
sub-G1 and G2/M-phase population (CL1-0 and H1975 cells [3]): increased
IC50 (IGR-OV1): 84 ± 2.07 nM
IC50 (Hs578t): 41 ± 2.87 nM
IC50 (PC-3): 45 ± 1.77 nM
ALT (IU/L) ([5]; 4 mg/kg): 40.8 ± 11 IU/L
AST(IU/L) ([5]; 4 mg/kg): 138.7 ± 58.6 IU/L
ALT (IU/L) ([5]; 8 mg/kg): 54.2 ± 16 IU/L
AST(IU/L) ([5]; 8 mg/kg): 170.8 ± 44.5 IU/L
body mass ([5]; 4 or 8 mg/kg i.p. three times a week, end of experiment): non-toxic affected
